Measurements published in publication PMC10331583, “Control of fibrosis with enhanced safety via asymmetric inhibition of prolyl‐tRNA synthetase 1” (EMBO Molecular Medicine, 2023).
Several values for one entry are separate records, joined by “and”; a condition that tells them apart may be missing. Equal entries are not always repeated. Where two headings read alike, the source gives them in different places.

Tests used:
[1] = system: TNT Quick Coupled Transcription/Translation System (luciferase synthesis); type: biochemical
WI‐26 VA4 cells [2] = assay: Puromycin incorporation assay; type: cell-based, human; conditions: for activity at 0.001 µM: WI26VA4, 1 nM; for activity at 0.01 µM: WI26VA4, 10 nM; for activity at 0.03 µM: WI26VA4, 30 nM; for activity at 0.1 µM: WI26VA4, 100 nM; for activity at 1 µM: WI26VA4, 1000 nM; for activity at 3 µM: WI26VA4, 3000 nM
Method in brief: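 WI‐26 VA4 cell lysates prepared in carbonate-bicarbonate buffer with protease inhibitor; 400 ng protein coated on ELISA plates 18 h at 4°C. Puromycin incorporated into proteins detected by antibody ELISA, absorbance 450 nm with 620 nm reference; outlier values excluded based on replicates and adjacent concentrations.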

[3] = CellTiter‐Glo assay (cytotoxicity); conditions: human, WI-26 VA4 cells, CC50 (CellTiter-Glo), 72 h (Fig 5B)
Experimental: (§1) After 24 h, the cells were incubated with various concentrations of compounds for 48 h. The level of ATP as a measure of cell viability was determined using a CellTiter‐Glo® luminescent cell viability assay kit (Promega, G7571) following the manufacturer's instructions.
(§2) WI‐26 VA4 cells were seeded at 1.2 × 10^4 cells/well in 96‐well white plates. After 24 h, the cells were incubated with the indicated concentrations of compounds for 72 h. The viability was determined as described above.

WI‐26 VA4 cells [4] = assay: CellTiter‐Glo assay (cytotoxicity); conditions: Homo sapiens; for activity at 0.01 µM: WI26VA4, read-out: CellTiter-Glo % of control, 10 nM; for activity at 0.1 µM: WI26VA4, read-out: CellTiter-Glo % of control, 100 nM; for activity at 1 µM: WI26VA4, read-out: CellTiter-Glo % of control, 1000 nM
Experimental: as §1, §2

[5] = Homo sapiens, read-out: Puromycin, % of control, average
[6] = Homo sapiens, read-out: Puromycin, % of control, single replicate

Q: With O=C(CC1NCCCC1O)Cn1cnc2cc(Br)c(Cl)cc2c1=O (stereo not shown) [HF, Halofuginone, reference compound] as the compound, how does the “TNT-luciferase LogIC50 (best-fit value)” value [1] read?
A: 2.211

Q: What about the “TNT-luciferase % of control, average” value ([1]; 6 nM) of the same compound?
A: 106.95 % of control

Q: What about the “TNT-luciferase % of control” value ([1]; 6 nM, 0.006 µM) of the same compound?
A: 109.98 % of control and 110.97 % of control and 123.24 % of control and 104.46 % of control and 101.11 % of control and 91.92 % of control

Q: And the “TNT-luciferase % of control, average” value ([1]; 10 nM)?
A: 114.54 % of control

Q: And the “TNT-luciferase % of control” value ([1]; 10 nM, 0.01 µM)?
A: 118.82 % of control and 112.93 % of control and 98.69 % of control and 124.51 % of control and 116.16 % of control

Q: What about the “TNT-luciferase % of control, average” value ([1]; 20 nM) of the same compound?
A: 104.66 % of control

Q: And the “TNT-luciferase % of control” value ([1]; 20 nM, 0.02 µM)?
A: 102.13 % of control and 100.65 % of control and 102.62 % of control and 110.31 % of control and 109.47 % of control and 102.79 % of control

Q: And the “TNT-luciferase % of control, average” value ([1]; 36 nM)?
A: 110.74 % of control

Q: And the “TNT-luciferase % of control” value ([1]; 36 nM, 0.036 µM)?
A: 113.42 % of control and 108.02 % of control and 129.62 % of control and 107.80 % of control and 102.79 % of control

Q: And the “TNT-luciferase % of control, average” value ([1]; 60 nM)?
A: 109.84 % of control

Q: And the “TNT-luciferase % of control” value ([1]; 60 nM, 0.06 µM)?
A: 112.44 % of control and 104.58 % of control and 103.60 % of control and 118.66 % of control and 113.65 % of control and 106.13 % of control

Q: What about the “TNT-luciferase % of control, average” value ([1]; 100 nM) of the same compound?
A: 95.21 % of control

Q: What about the “TNT-luciferase % of control” value ([1]; 100 nM, 0.1 µM) of the same compound?
A: 67.76 % of control and 70.21 % of control and 67.27 % of control and 122.01 % of control and 126.18 % of control and 117.83 % of control

Q: And the “TNT-luciferase % of control, average” value ([1]; 200 nM)?
A: 33.45 % of control

Q: What about the “TNT-luciferase % of control, average” value ([1]; 360 nM) of the same compound?
A: 4.01 % of control

Q: What about the “TNT-luciferase % of control, average” value ([1]; 600 nM) of the same compound?
A: 0.26 % of control

Q: And the “TNT-luciferase % of control, average” value ([1]; 1000 nM)?
A: 0.09 % of control

Q: And the “TNT-luciferase % of control, average” value ([1]; 2000 nM)?
A: 0.02 % of control

Q: What about the “TNT-luciferase % of control” value ([1]; 2000 nM, 2 µM) of the same compound?
A: 0.04 % of control

Q: And the IC50 ([1]; read-out: TNT-luciferase IC50 (best-fit value))?
A: 163 nM

Q: And the “Puromycin, % of control, single replicate” value (shortened to “Puromycin, % of control”) (WI‐26 VA4 cells [2]; 3 nM, 0.003 µM)?
A: 87.66 % of control and 110.89 % of control and 102.72 % of control and 101.10 % of control and 86.71 % of control and 84.36 % of control and 98.41 % of control and 95.09 % of control and 95.08 % of control and 108.41 % of control and 105.39 % of control and 104.60 % of control

Q: And the “Puromycin, % of control” value (WI‐26 VA4 cells [2]; 10 nM, 0.01 µM)?
A: 100.34 % of control and 96.77 % of control and 97.76 % of control and 87.44 % of control and 83.58 % of control and 96.23 % of control and 94.53 % of control

Q: What about the “Puromycin, % of control” value (WI‐26 VA4 cells [2]; 30 nM, 0.03 µM) of the same compound?
A: 113.27 % of control and 109.87 % of control and 110.26 % of control and 116.66 % of control and 114.17 % of control and 107.05 % of control and 108.24 % of control and 108.11 % of control and 111.56 % of control and 111.23 % of control and 110.22 % of control

Q: And the “Puromycin, % of control” value (WI‐26 VA4 cells [2]; 100 nM, 0.1 µM)?
A: 90.48 % of control and 92.59 % of control and 92.61 % of control and 84.84 % of control and 84.75 % of control and 85.14 % of control and 85.25 % of control and 85.34 % of control and 84.22 % of control

Q: What about the “Puromycin, % of control” value (WI‐26 VA4 cells [2]; 300 nM, 0.3 µM) of the same compound?
A: 10.84 % of control and 35.41 % of control and 34.99 % of control and 10.87 % of control and 10.33 % of control and 31.26 % of control and 32.35 % of control and 31.90 % of control and 32.62 % of control and 32.23 % of control and 32.21 % of control

Q: And the “Puromycin, % of control” value (WI‐26 VA4 cells [2]; 3000 nM, 3 µM)?
A: 3.08 % of control (2×) and 2.96 % of control and 3.28 % of control and 2.21 % of control and 2.18 % of control and 2.60 % of control and 2.20 % of control and 3.16 % of control and 3.05 % of control

Q: And the “Puromycin, % of control” value (WI‐26 VA4 cells [2]; 10000 nM, 10 µM)?
A: 3.89 % of control and 1.98 % of control and 2.07 % of control and 2.17 % of control and 4.12 % of control and 4.05 % of control and 1.27 % of control and 1.14 % of control and 1.39 % of control and 2.12 % of control and 2.04 % of control

Q: And the “Puromycin, % of control” value (WI‐26 VA4 cells [2]; 30000 nM, 30 µM)?
A: 2.04 % of control and 1.64 % of control and 1.93 % of control and 3.75 % of control and 1.32 % of control and 1.84 % of control and 1.82 % of control and 1.41 % of control

Q: And the activity at 0.001 µM (WI‐26 VA4 cells [2]; [5])?
A: 102%

Q: And the activity at 0.001 µM (WI‐26 VA4 cells [2]; [6])?
A: 101%

Q: What about the activity at 0.003 µM (WI‐26 VA4 cells [2]; Homo sapiens, WI26VA4, 3 nM, read-out: Puromycin, % of control, average) of the same compound?
A: 98.4%

Q: What about the activity at 0.01 µM (WI‐26 VA4 cells [2]; [5]) of the same compound?
A: 94.8%

Q: What about the activity at 0.01 µM (WI‐26 VA4 cells [2]; [6]) of the same compound?
A: 86.6%

Q: What about the activity at 0.03 µM (WI‐26 VA4 cells [2]; [5]) of the same compound?
A: 111%

Q: What about the activity at 0.03 µM (WI‐26 VA4 cells [2]; [6]) of the same compound?
A: 117%

Q: And the activity at 0.1 µM (WI‐26 VA4 cells [2]; [5])?
A: 88%

Q: What about the activity at 0.1 µM (WI‐26 VA4 cells [2]; [6]) of the same compound?
A: 94.6%

Q: And the activity at 0.3 µM (WI‐26 VA4 cells [2]; Homo sapiens, WI26VA4, 300 nM, read-out: Puromycin, % of control, average)?
A: 26.8%

Q: And the activity at 1 µM (WI‐26 VA4 cells [2]; [5])?
A: 3.03%

Q: And the activity at 1 µM (WI‐26 VA4 cells [2]; [6])?
A: 2.13%

Q: And the activity at 3 µM (WI‐26 VA4 cells [2]; [5])?
A: 2.66%

Q: And the activity at 3 µM (WI‐26 VA4 cells [2]; [6])?
A: 2.13%

Q: What about the activity at 10 µM (WI‐26 VA4 cells [2]; Homo sapiens, WI26VA4, 10000 nM, read-out: Puromycin, % of control, average) of the same compound?
A: 2.36%

Q: And the activity at 30 µM (WI‐26 VA4 cells [2]; Homo sapiens, WI26VA4, 30000 nM, read-out: Puromycin, % of control, average)?
A: 1.87%

Q: And the IC50 (WI‐26 VA4 cells [2]; Homo sapiens, WI26VA4, log(inhibitor) vs. response, variable slope (four parameters), read-out: Puromycin, IC50 (best-fit value))?
A: 200 nM

Q: What about the “Puromycin, HillSlope (best-fit value)” value (WI‐26 VA4 cells [2]; log(inhibitor) vs. response, variable slope (four parameters)) of the same compound?
A: -2.795

Q: And the “Puromycin, LogIC50 (best-fit value)” value (WI‐26 VA4 cells [2]; log(inhibitor) vs. response, variable slope (four parameters), concentration in nM)?
A: 2.301

Q: And the CC50 at 72 h [3]?
A: 51 nM

Q: What about the activity at 0.001 µM (WI‐26 VA4 cells [4]; WI26VA4, read-out: CellTiter-Glo % of control, 1 nM, Experiment #1, replicates) of the same compound?
A: 106%

Q: What about the activity at 0.01 µM (WI‐26 VA4 cells [4]; Experiment #1, replicates) of the same compound?
A: 99.6%

Q: And the activity at 0.01 µM (WI‐26 VA4 cells [4]; Experiment #2, replicates)?
A: 85.1%

Q: What about the activity at 0.03 µM (WI‐26 VA4 cells [4]; WI26VA4, read-out: CellTiter-Glo % of control, 30 nM, Experiment #2, replicates) of the same compound?
A: 74.1%

Q: And the activity at 0.1 µM (WI‐26 VA4 cells [4]; Experiment #1, replicates)?
A: 35.7%

Q: And the activity at 0.1 µM (WI‐26 VA4 cells [4]; Experiment #2, replicates)?
A: 30%

Q: And the activity at 0.3 µM (WI‐26 VA4 cells [4]; WI26VA4, read-out: CellTiter-Glo % of control, 300 nM, Experiment #2, replicates)?
A: 17.6%

Q: And the activity at 1 µM (WI‐26 VA4 cells [4]; Experiment #1, replicates)?
A: 17.1%

Q: What about the activity at 1 µM (WI‐26 VA4 cells [4]; Experiment #2, replicates) of the same compound?
A: 29.9%

Q: What about the activity at 3 µM (WI‐26 VA4 cells [4]; WI26VA4, read-out: CellTiter-Glo % of control, 3000 nM, Experiment #2, replicates) of the same compound?
A: 11%
